The values below come from ChEMBL document CHEMBL1130697, “C24 and C25 substituted marcfortine A derivatives” (Bioorg Med Chem Lett, 1998).

The structures appear in SMILES notation. Calls of active or inactive are those of the source. The calls are words filed in the database; no cut-off is given here.

The test system of one assay is Gerbillinae. The assay is described as follows: Anthelmintic activity against immunosuppressed Mongolian gerblis(jirds) inoculated with Haemonchus contortus and Trichostrongylus colubriform; not active. The format is functional.
For the compound `CC1=COc2c(ccc3c2NC(=O)[C@@]32C[C@@]34CN5CCCC[C@]5(C[C@@H]3C2(C)C)C(=O)N4C)OC1(C)C`, the outcome was inactive.

In the case of `CN1C(=O)[C@@]23CCCCN2C[C@@]12C[C@@]1(C(=O)Nc4c1ccc1c4OCC4(CO4)C(C)(C)O1)C(C)(C)[C@H]2C3` (stereo not given in full), the result was inactive.

In the case of `CN1C(=O)[C@]23C[C@@H]4C(C)(C)[C@@]5(C[C@@]41CN2CC[C@@]3(C)O)C(=O)Nc1c5ccc2c1OC=CC(C)(C)O2`, the outcome was inactive.

As to `CN1C(=O)[C@@]23CCCCN2C[C@@]12C[C@@]1(C(=O)Nc4c1ccc1c4OC=CC(C)(C)O1)C(C)(C)[C@H]2C3`, the result was inactive.

Consider `CN1C(=O)[C@@]23CCCCN2C[C@@]12C[C@@]1(C(=O)Nc4c1ccc(O)c4O)C(C)(C)[C@H]2C3`, for which the result was inactive.

Regarding `C=C1COc2ccc3c(c2OC1)NC(=O)[C@@]31C[C@@]23CN4CCCC[C@]4(C[C@@H]2C1(C)C)C(=O)N3C`, the outcome was inactive.

For `CN1C(=O)[C@@]23CCCCN2C[C@@]12C[C@@]1(C(=O)Nc4c1ccc1c4OCC(=O)C(C)(C)O1)C(C)(C)[C@H]2C3`, the outcome was inactive.

Regarding `CN1C(=O)[C@@]23CCCCN2C[C@@]12C[C@@]1(C(=O)Nc4c1ccc1c4OCC(O)C(C)(C)O1)C(C)(C)[C@H]2C3` (stereo not given in full), the result was inactive.

In the case of `CN1C(=O)[C@@]23CCCCN2C[C@@]12C[C@@]1(C(=O)Nc4c1ccc1c4OCC(C)(O)C(C)(C)O1)C(C)(C)[C@H]2C3` (stereo not given in full), the outcome was inactive.

Another assay concerns Gerbillinae. As to the kind of experiment: Anthelmintic activity against immunosuppressed Mongolian gerblis(jirds) inoculated with Haemonchus contortus and Trichostrongylus colubriform;found to be active. The format is functional.
Turning to `C=C1COc2c(ccc3c2NC(=O)[C@@]32C[C@@]34CN5CCCC[C@]5(C[C@@H]3C2(C)C)C(=O)N4C)OC1(C)C`, the result was Active.
